Where no end group is shown, it is not given here.
Key:
[1] = test system: S. agalactiae A909; assay: Culture growth upon treatment with 100 nM antibiotic; format: cell-based, Streptococcus agalactiae; design: key to Inhibition By (S. agalactiae A909): “−” indicates not inhibited; “+” indicates mildly inhibited; “++” indicates inhibited
Protocol: (§1) Other streptococcal species have similar dose-dependent growth inhibitory responses to tryglysins. WGK peptides inhibit growth of several streptococcal species, but not E. faecalis or L. lactis. We extended the evaluation of tryglysin inhibitory activity to other bacterial species. Culture growth rates of several Gram-positive species were evaluated upon treatment with 100 nM each antibiotic. Most susceptible to treatments, with complete growth inhibition at only 100 nM tryglysins, were strains of S. mitis, S. oralis, and S. pneumoniae, each being members of the mitis group. […] Unaffected were cultures of S. pyogenes, Lactococcus lactis, and Enterococcus faecalis (FIG. S4A to F).
(§2) It can also be seen that the disclosed peptides inhibit growth of several streptococcal species, but not others outside of streptococcal species, such as E. faecalis or L. lactis.
(§3) Specifically, bacterial strains were grown from prestored glycerol stocks at −80° C. and inoculated into THY broth. Strains were incubated overnight at 37° C. in an atmosphere of 5% CO2, and the next morning, they were washed and resuspended in fresh, prewarmed CDM as described above in Example 4.

[2] = test system: S. mitis CCUG 31611; assay: as above; format: cell-based, Streptococcus mitis; design: key: “−” indicates not inhibited; “+” indicates mildly inhibited; “++” indicates inhibited
Protocol: as §1, §2, §3

[3] = test system: S. mutans; assay: Morphological changes (cell chaining) by microscopy after tryglysin treatment; format: cell-based, Streptococcus mutans; conditions: 100 nM
Protocol: FIG. 4 is a graph showing the quantification of chains greater than three cells in length for S. mutans exposed to 100 nM tryglysin A for 2 h, 5 h, or 7 h. A minimum of 100 cells were observed per condition and time point. −, no tryglysin A; +, 100 nM tryglysin A. **, P<0.01; ns, not significant by one-way ANOVA with Dunnet's multiple comparison posttest.
The impact of tryglysins on gross morphological changes to cell shape was examined at 2, 5, and 7 h after treatment with 100 nM tryglysin A or B by microscopy.
Prestored glycerol stocks of S. mutans strains at −80° C. were inoculated into THY broth and incubated overnight at 37° C. in an atmosphere of 5% CO2. CDM was prepared and prewarmed at 37° C. in an atmosphere of 5% CO2 overnight. The next morning, strains were transferred to sterile 15-ml conical tubes and centrifuged at room temperature at 4,000×g for 10 min. Strains were resuspended in 1 ml prewarmed CDM, transferred to microcentrifuge tubes, and centrifuged again at room temperature at 14,000×g for 5 min. Supernatant was discarded, and strains were resuspended in 1 ml fresh prewarmed CDM. Resuspended strains were then inoculated into 6 ml prewarmed CDM at 1:200 dilution. At each time point, strains were monitored by measuring OD600 with a GENESYS 30 Vis spectrophotometer (Thermo-Fisher)
If required, at 1 h postinoculation, 100 nM tryglysin A or B was added to the media. For microscopic analysis of samples, 2 ml of live cells was taken at 2 h, 5 h, and 7 h after the addition of tryglysins and examined using an Olympus CKX53 inverted microscope with a 40× LCACHN-iPC infinity objective (LCACHN40XIPC; numerical aperture, 0.55) connected to a SC50 camera (Olympus). Images were processed using Olympus Stream Image Analysis software (Olympus).

[4] = test system: S. ferus; assay: Dose-dependent growth inhibition of cultures with tryglysin titrations over 9 hours; format: cell-based, Streptococcus ferus; conditions: 9-h growth assay
Protocol: (§4) Growth inhibition of S. mutans and S. ferus cultures was tested with titrations of both tryglysin A and B over a period of 9 hours.
Referring to FIG. 3B, the dose-dependent growth inhibition of S. ferus by Triglysin A can be seen. Cultures exposed to no tryglysin A 311, 10 nM tryglysin A 312, and 100 nM tryglysin A 313 can be seen.
Referring to FIG. 3D, the dose-dependent growth inhibition of S. ferus by Triglysin B can be seen. Cultures exposed to no tryglysin B 331, 10 nM tryglysin B 332, and 100 nM tryglysin B 333 can be seen.

[5] = test system: S. pneumoniae D39; assay: Culture growth upon treatment with 100 nM antibiotic; format: cell-based, Streptococcus pneumoniae; design: key: “−” indicates not inhibited; “+” indicates mildly inhibited; “++” indicates inhibited
Protocol: as §1, §2, §3

[6] = test system: L. lactis ATCC 11454; assay: as above; format: cell-based, Lactococcus lactis; design: key: “−” indicates not inhibited; “+” indicates mildly inhibited; “++” indicates inhibited
Protocol: as §1, §2, §3

[7] = test system: S. sanguinis ATCC 10556; assay: as above; format: cell-based, Streptococcus sanguinis; design: key to Inhibition By (S. sanguinis ATCC 10556): “−” indicates not inhibited; “+” indicates mildly inhibited; “++” indicates inhibited
Protocol: as §1, §2, §3

[8] = test system: S. mutans UA159; assay: as above; format: cell-based, Streptococcus mutans; design: key: “−” indicates not inhibited; “+” indicates mildly inhibited; “++” indicates inhibited
Protocol: as §1, §2, §3

[9] = test system: S. pyogenes NZ131; assay: as above; format: cell-based, Streptococcus pyogenes; design: key: “−” indicates not inhibited; “+” indicates mildly inhibited; “++” indicates inhibited
Protocol: as §1, §2, §3

[10] = test system: S. bovis JB1; assay: as above; format: cell-based, Streptococcus bovis; design: key to Inhibition By (S. bovis JB1): “−” indicates not inhibited; “+” indicates mildly inhibited; “++” indicates inhibited
Protocol: as §1, §2, §3

[11] = test system: S. mutans; assay: Dose-dependent growth inhibition of cultures with tryglysin titrations over 9 hours; format: cell-based, Streptococcus mutans
Protocol: as §4
Referring to FIG. 3A, the dose-dependent growth inhibition of S. mutans by Triglysin A can be seen. Cultures exposed to no tryglysin A 301, 10 nM tryglysin A 302, 100 nM tryglysin A 303, and 1 μM tryglysin A 304 can be seen.
Referring to FIG. 3C, the dose-dependent growth inhibition of S. mutans by Triglysin B can be seen. Cultures exposed to no tryglysin B 321, 10 nM tryglysin B 322, 100 nM tryglysin B 323, and 1 μM tryglysin B 324 can be seen.

[12] = test system: S. ferus DSM 20646; assay: Culture growth upon treatment with 100 nM antibiotic; format: cell-based, Streptococcus ferus; design: key: “−” indicates not inhibited; “+” indicates mildly inhibited; “++” indicates inhibited
Protocol: as §1, §2, §3

[13] = test system: S. oralis 108; assay: as above; format: cell-based, Streptococcus oralis; design: key: “−” indicates not inhibited; “+” indicates mildly inhibited; “++” indicates inhibited
Protocol: as §1, §2, §3

[14] = test system: E. faecalis V583; assay: as above; format: cell-based, Enterococcus faecalis; design: key: “−” indicates not inhibited; “+” indicates mildly inhibited; “++” indicates inhibited
Protocol: as §1, §2, §3

[15] = test system: S. gordonii Challis Bt; assay: as above; format: cell-based, Streptococcus gordonii; design: key: “−” indicates not inhibited; “+” indicates mildly inhibited; “++” indicates inhibited
Protocol: as §1, §2, §3

[16] = to a lower degree than for S. agalactiae

Substance	Inhibition By (S. agalactiae A909) [1]	Inhibition By (S. mitis CCUG 31611) [2]	chaining of S. mutans cells (chains greater than three cells in length) ([3]; 5 h after addition)	chaining of S. mutans cells (chains greater than three cells in length) ([3]; 7 h after addition)	growth inhibition of S. ferus ([4]; 10 nM)	growth inhibition of S. ferus ([4]; 100 nM)	Inhibition By (S. pneumoniae D39) [5]	Inhibition By (L. lactis ATCC 11454) [6]	Inhibition By (S. sanguinis ATCC 10556) [7]	Inhibition By (S. mutans UA159) [8]	Inhibition By (S. pyogenes NZ131) [9]	Inhibition By (S. bovis JB1) [10]	growth inhibition of S. mutans ([11]; 10 nM, 9-h growth assay)	Inhibition By (S. ferus DSM 20646) [12]	Inhibition By (S. oralis 108) [13]	Inhibition By (E. faecalis V583) [14]	Inhibition By (S. gordonii Challis Bt) [15]	also measured
Tryglysin A (VNSWGKH; bridge (positions not given here); also: macrocyclic, tetrahydro[5,6]benzindole modification, places not given here)	++	++	significantly increased	significantly increased	Significant growth inhibition	complete inhibition	++	−	++	++	−	+	Significant growth inhibition	++	++	−	+	inhibitory activity against S. agalactiae compared with variant B [1]: greater inhibitory activity; inhibitory activity against S. sanguinis compared with variant B [7, 16]: greater inhibitory activity; inhibitory activity against S. bovis compared with variant B [10, 16]: greater inhibitory activity; growth inhibition of S. mutans ([11]; 100 nM, 9-h growth assay): further inhibition; growth inhibition of S. mutans ([11]; 1 μM, 9-h growth assay): further inhibition
Tryglysin B (VNCWGKH; bridge (positions not given here); also: macrocyclic, tetrahydro[5,6]benzindole modification, places not given here; listed as Streptococcus ferus)	+	++	appeared to do the same	appeared to do the same	minimal inhibition	compete inhibition	++	−	++	++	−	+	some inhibition	++	++	−	+	concentration required for significant growth inhibition of S. mutans ([11]; 9-h growth assay): at least 100 nM; concentration required for S. mutans to be completely inhibited ([11]; over the 9-h growth assay): 1 µM

From patent US12630585B2, “Antibacterial tryglysin agents” (The Trustees of Princeton University, priority 2020, dated 2026)
